Data as given in publication PMC4050187 (FEBS Open Bio, 2014).

Target: T1, Cj0511His (Campylobacter jejuni, UniProt Q0PB04)
T1 sequence (Q0PB04 36-444): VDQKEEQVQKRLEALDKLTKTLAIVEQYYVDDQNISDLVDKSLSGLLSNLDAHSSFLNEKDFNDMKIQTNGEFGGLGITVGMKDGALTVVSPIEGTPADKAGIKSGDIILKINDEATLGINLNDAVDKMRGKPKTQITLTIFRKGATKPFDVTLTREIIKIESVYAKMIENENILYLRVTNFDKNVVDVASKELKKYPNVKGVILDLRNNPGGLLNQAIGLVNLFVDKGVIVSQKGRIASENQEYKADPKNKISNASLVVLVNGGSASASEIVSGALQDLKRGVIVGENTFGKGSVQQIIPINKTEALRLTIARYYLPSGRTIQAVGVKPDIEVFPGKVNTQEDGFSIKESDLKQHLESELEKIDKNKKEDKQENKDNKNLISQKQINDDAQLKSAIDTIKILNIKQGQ
Test: colorimetric protease screening kit, absorbance at […] nm
Format: biochemical
Details: 1 mM inhibitor, 37 °C, 3 h, 0.25 μg protein in 50 μl

Structure (SMILES): NCCc1ccc(S(=O)(=O)F)cc1 [AEBSF]
- reduction in activity at 1 mM: reduction in activity in the presence of antipain, aprotin, AEBSF and PMSF inhibitors
